Experimental data: patent publication US10745393B2, “Small molecular probes, processes and use thereof” (JAWAHARLAL NEHRU CENTRE FOR ADVANCED SCIENTIFIC RESEARCH, priority 2014, dated 2020)

How the values were obtained:
[1] = In vitro stability in human blood serum (HPLC); assay type: in vitro ADME; details: 60 min incubation with human blood serum at 37° C.
Description: The in vitro stability of QC in […] is determined by incubating QC (10 μM in H2O, 50 μM) with 300 μL of human blood serum at 37° C. for 30 and 60 min. Proteins are precipitated by adding 500 μL of acetonitrile […] at 5000 rpm for 5 min at 4° C. The supernatant is collected. Approximately 0.1 mL of the supernatant solution is analyzed using HPLC.

[2] = Partition coefficient (Log P), shake flask method; assay type: physicochemical; details: n-octanol/water
Description: Log P value is calculated by Shake flask (or tube) method. To an equilibrated solution of n-octanol and water in a separating funnel, probe QC/TC is added and agitated well. The solution is left for 30 minutes for proper separation of immiscible solvents, then the distribution of QC/TC is calculated using UV spectroscopy and the obtained concentrations are used in below equation to obtain log P value log P=log [Conc. of QC or TC in n-octanol/Conc. of QC or TC in water]

[3] = test system: calf thymus DNA; assay: Selectivity of QC: fluorescence with calf thymus DNA; assay type: binding; details: QC 2 μM, DNA 20 μM
Text: Selective fluorescence enhancement is shown by QC probe, with strong binding affinity. Probe QC has very good lipophilicity to cross the BBB and serum stability. QC detects Aβ plaques in CSF samples of patient which can be used in early diagnosis of Alzheimer's Disease. Probe QC is a molecular rotor moiety containing an electron withdrawing group in conjugation with an electron releasing group with a freely rotatable bond. Prevention of internal rotation in QC by surrounding medium rigidity, leads to a decrease in the non-radiative decay rate and an increase in fluorescence emission. […] In presence of Aβ42 aggregates (10 μM) prepared in PBS buffer (10 mM), absorption maxima at 521 nm (λex) and a blue shifted emission maxima (10 nm) with huge (>100 fold) fluorescence enhancement ([…]=654 nm) and a large stoke shift of ˜130 nm is observed (FIG. 47). […] These peptides are known to form fibrillar aggregates similar to Aβ42 aggregates. […] No such changes are observed in case of IAPP aggregates.

[4] = molecular target: T1, Aβ42 aggregates (Homo sapiens, UniProt P05067); assay: Binding saturation assay (fluorescence) for binding constant; details: fluorescence saturation curve; Aβ42 aggregates 10 μM (QC) or 2 μM (TC); read-out: dissociation constant Kd
T1 sequence (P05067 672-713 limits assumed): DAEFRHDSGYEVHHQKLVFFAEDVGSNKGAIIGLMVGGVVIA

[5] = Absorption, emission and quantum yield of probes without Aβ42 aggregates; assay type: physicochemical
[6] = test system: Aβ plaques in CSF samples; assay: Detection of amyloid plaques in CSF samples by fluorescence; details: for Normalized fluorescence intensity (QC): QC 10 μM; for Normalized fluorescence intensity (ThT): ThT 20 μM
Description: In the present experiment, Amyloid plaques in the CSF sample are detected as it is a hallmark of AD using ThT and QC. […] QC (10 μM) is used to detect Aβ plaques in the same set of CSF samples, which show the same trend as Thioflavin assay and stains CSF3, CSF5, CSF6 and CSF12 samples (FIG. 57 and table 6).

[7] = molecular target: T1, Aβ42 aggregates; assay: Absorption / fluorescence response with Aβ42 fibrillar aggregates; assay type: binding
[8] = test system: Aβ42 aggregates expressed in S. cerevisiae (BY4741); assay type: cell-based
[9] = molecular target: ThT/Aβ42 aggregate complex (Homo sapiens, UniProt P05067); assay: ThT displacement / FRET assay; assay type: binding
Chain of ThT/Aβ42 aggregate complex (P05067 672-713 limits assumed, one chain of several): as the sequence (P05067 672-713 limits assumed) above

[10] = molecular target: α-Synuclein (α-Syn) aggregates (Homo sapiens, UniProt P37840); assay: Selectivity: fluorescence with α-synuclein aggregates; assay type: binding
[11] = molecular target: bovine serum albumin (BSA) (Bos taurus, UniProt P02769); assay: Selectivity: fluorescence with BSA; assay type: binding
Chain of bovine serum albumin (BSA) (P02769 25-607): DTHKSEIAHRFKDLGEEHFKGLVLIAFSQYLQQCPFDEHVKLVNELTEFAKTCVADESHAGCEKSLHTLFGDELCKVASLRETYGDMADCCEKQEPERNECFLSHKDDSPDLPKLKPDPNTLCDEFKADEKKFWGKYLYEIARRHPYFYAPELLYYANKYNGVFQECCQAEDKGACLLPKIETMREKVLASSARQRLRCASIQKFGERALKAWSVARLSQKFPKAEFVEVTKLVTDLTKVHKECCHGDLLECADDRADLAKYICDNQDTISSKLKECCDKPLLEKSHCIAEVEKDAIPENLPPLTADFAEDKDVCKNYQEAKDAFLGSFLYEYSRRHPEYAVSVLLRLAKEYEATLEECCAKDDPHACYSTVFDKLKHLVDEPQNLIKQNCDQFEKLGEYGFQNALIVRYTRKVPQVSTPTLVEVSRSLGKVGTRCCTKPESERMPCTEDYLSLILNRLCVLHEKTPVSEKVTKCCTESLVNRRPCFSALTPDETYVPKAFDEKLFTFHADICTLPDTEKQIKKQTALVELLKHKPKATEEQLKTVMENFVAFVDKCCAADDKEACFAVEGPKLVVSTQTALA

[12] = test system: α-synuclein (A30P) aggregates expressed in S. cerevisiae (BY4741); assay type: cell-based; details: QC 5 μM
[13] = molecular target: T2, islet amyloid polypeptide (IAPP) aggregates (Homo sapiens, UniProt P10997); assay: Selectivity: fluorescence with IAPP aggregates; assay type: binding; details: IAPP aggregates 20 μM
T2 construct: A 0.1 mg (Merck, calbiochem) sample of amylin is dissolved in 100 μL of acetonitrile; purchased Merck, calbiochem
T2 sequence (P10997 34-70 limits assumed): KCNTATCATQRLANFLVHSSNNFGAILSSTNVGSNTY

[14] = molecular target: Aβ42 monomers (Homo sapiens, UniProt P05067); assay: Absorption / fluorescence response with Aβ monomers; assay type: binding; details: QC 2 μM, Aβ monomers 10 μM
Chain of Aβ42 monomers (P05067 672-713 limits assumed): as the sequence (P05067 672-713 limits assumed) above

[15] = cresyl violet perchlorate standard

For `CCN(CC)c1ccc2cc(/C=C/c3ccc4ccccc4[n+]3C)c(=O)oc2c1.[I-]` [QC, 2-(2-(7-(diethylamino)-2-oxo-2H-chromen-3-yl)vinyl)-1-methylquinolin-1-ium Iodide], the probe identified intact [1] was “more than 97%”, the logP [2] was 2.4 and the “fluorescence enhancement with calf thymus DNA” value [3] was “slight fluorescence enhancement”. The Kd [4] was 82 ± 2.3 nM, the “absorption maximum in absence of Aβ42 aggregates” value ([5]; PBS buffer (10 mM, pH 7.4)) was 516 nm and the “emission maximum in absence of Aβ42 aggregates” value ([5]; PBS buffer, very weak fluorescence) was 664 nm. The “quantum yield, unbound” value [5, 15] was 0.08, the “Normalized fluorescence intensity (QC)” value ([6]; sample CSF1) was 12.50 and the “Normalized fluorescence intensity (QC)” value ([6]; sample CSF2) was 3.24. The “Normalized fluorescence intensity (QC)” value ([6]; sample CSF3) was 29.60, the “Normalized fluorescence intensity (QC)” value ([6]; sample CSF4) was 10.70 and the “Normalized fluorescence intensity (QC)” value ([6]; sample CSF5) was 51.50. The “Normalized fluorescence intensity (QC)” value ([6]; sample CSF6) was 29.60, the “Normalized fluorescence intensity (QC)” value ([6]; sample CSF7) was 6.40 and the “Normalized fluorescence intensity (QC)” value ([6]; sample CSF8) was 11.08. For the same molecule, the “Normalized fluorescence intensity (QC)” value ([6]; sample CSF9) was 6.30, the “Normalized fluorescence intensity (QC)” value ([6]; sample CSF10) was 5.40 and the “Normalized fluorescence intensity (QC)” value ([6]; sample CSF11) was 6.70. The “Normalized fluorescence intensity (QC)” value ([6]; sample CSF12) was 44.40, the “Normalized fluorescence intensity (QC)” value ([6]; sample CSF13) was 3.20 and the “Normalized fluorescence intensity (QC)” value ([6]; sample CSF14) was 12.30. The “Stokes shift upon binding to Aβ42 aggregates” value [7] was ~130 nm, the “blue shift of emission maxima in presence of Aβ42 aggregates” value ([7]; QC 2 μM, Aβ42 aggregates 10 μM) was 10 nm and the “absorption maxima in presence of Aβ42 aggregates” value ([7]; QC 2 μM, Aβ42 aggregates 10 μM, PBS 10 mM) was 521 nm. The “quantum yield after binding to Aβ42 aggregates” value [7, 15] was 0.36, the “emission maximum in presence of Aβ42 aggregates” value ([7]; probe 2 μM) was 654 nm and the “fluorescence enhancement in presence of Aβ42 aggregates” value ([7]; probe 2 μM, PBS buffer) was > 100 fold. For the same molecule, the “fluorescence correlation coefficient with GFP tagged Aβ42 aggregates” value ([8]; QC 5 μM) was 83.7%, the “staining of S. cerevisiae expressing Aβ42 aggregates” value ([8]; QC 5 μM, live cells) was “stains S. cerevisiae expressing Aβ42 aggregates selectively” and the “mean Pearson co-localization coefficient” value ([8]; live cells counted (n=50)) was 0.837. The “displacement of ThT from ThT/Aβ42 aggregate complex” value ([9]; decay at 483 nm, enhancement at 654 nm) was “effective displacement of ThT by QC”, the “blue shift of λem maxima with α-Syn aggregates” value ([10]; QC 2 μM, α-Syn 20 μM) was ~9 nm and the “fluorescence enhancement with α-Syn aggregates” value ([10]; α-Syn aggregates 20 μM) was “negligible enhancement in fluorescence”. The “fluorescence enhancement with BSA” value ([11]; BSA 20 μM) was “considerable fluorescence enhancement is not observed”, the “shift of emission with BSA” value ([11]; QC 2 μM) was ~34 nm and the “λem with BSA” value ([11]; QC 2 μM) was 616 nm. The “staining of S. cerevisiae strains with α-synuclein (A30P) aggregates” value [12] was “not stained”, the “fluorescence enhancement with IAPP aggregates” value [13] was “negligible enhancement in fluorescence” and the “absorption maxima in presence of Aβ monomers” value [14] was 521 nm. The “fluorescence enhancement in presence of Aβ monomers” value ([14]; λem=654 nm) was ~7 fold.
With `Cc1ccc2c(c1)sc(-c1ccc(N(C)C)cc1)[n+]2C.[Cl-]` [ThT, Thioflavin T, reference compound] the “Normalized fluorescence intensity (ThT)” value ([6]; sample CSF1) was 14.35, the “Normalized fluorescence intensity (ThT)” value ([6]; sample CSF2) was 5.60 and the “Normalized fluorescence intensity (ThT)” value ([6]; sample CSF3) was 18.25. The “Normalized fluorescence intensity (ThT)” value ([6]; sample CSF4) was 7.45, the “Normalized fluorescence intensity (ThT)” value ([6]; sample CSF5) was 40.65 and the “Normalized fluorescence intensity (ThT)” value ([6]; sample CSF6) was 24.40. For the same molecule, the “Normalized fluorescence intensity (ThT)” value ([6]; sample CSF7) was 5.75, the “Normalized fluorescence intensity (ThT)” value ([6]; sample CSF8) was 8.40 and the “Normalized fluorescence intensity (ThT)” value ([6]; sample CSF9) was 7.50. For the same molecule, the “Normalized fluorescence intensity (ThT)” value ([6]; sample CSF10) was 3.26, the “Normalized fluorescence intensity (ThT)” value ([6]; sample CSF11) was 8.35 and the “Normalized fluorescence intensity (ThT)” value ([6]; sample CSF12) was 37.50. The “Normalized fluorescence intensity (ThT)” value ([6]; sample CSF13) was 4.20, the “Normalized fluorescence intensity (ThT)” value ([6]; sample CSF14) was 4.52 and the “displacement of TC from its complex with Aβ42 aggregates by excess ThT” value ([9]; excess ThT 50 μM, TC 1 μM, Aβ42 50 μM) was “does not displace TC”.
